Patent publication US12540143B2, “Methods and compositions for targeted protein degradation” (Ranok Therapeutics (Hangzhou) Co. Ltd., priority 2019, dated 2026)
pIC50: −log10 of the molar value. Structures can show the parent of a compound that is named as a salt. Where two headings read alike, the source gives them in different places.

How the values were obtained:
MV4-11 cells = experiment: MV4-11 Cytotoxicity Assay; assay type: cell-based, human; conditions: Homo sapiens, read-out: MV4-11 cytotoxicity
HSP90α = HSP90α (Homo sapiens, UniProt P07900); experiment: HSP90α Binding Fluorescent Polarization (FP) Assay; conditions: competition with FITC-geldanamycin; read-out: HSP90 Binding Potency
Description: HSP90α Binding Fluorescent Polarization (FP) Assay
A master mix was prepared with assay buffer, BSA and FITC-geldanamycin. In a 96-well plate, a serial 3-fold dilution of each compound was prepared ranging from 40 μM down until 2.0 nM. Also in a 96-well plate, recombinant HSP90α protein was diluted to 28 μg/ml. Then, in a 384-well plate, 10 μl of master mix and 5 μl of compound dilution were added per well to duplicate wells and mixed by brief shaking. Then 5 μl of diluted HSP90α protein was added per well, mixed by brief shaking, incubated at 25° C. for 30, 60 and 120 min and fluorescence was measured on an En Vision Plate Reader. Background-subtracted mP values were calculated from En Vision raw data and a four-parameter “log[inhibitor] vs. response” curve was fitted using GraphPad Prism 7.0.

MYC protein = experiment: MYC Protein Expression HTRF Assay in MV4-11 cells; assay type: cell-based; conditions: Homo sapiens, 24 hr treatment
Description: MYC protein expression was measured using the Human c-Myc Cell-based Assay Kit (Cisbio, #63ADK053PEG), a homogeneous time resolved fluorescence (HTRF) assay. […] Cells were collected by centrifugation, supernatant removed by aspiration and 10 μL of lysis buffer was added and incubated for 45 min at room temperature while shaking. In a 384-well plate, 10 μL of cell lysate/well was combined with 10 μL of premixed antibody solution containing anti-human MYC-Eu3+ Cryptate prepared in detection buffer and incubated overnight at room temperature, whereupon the signal was measured. The ratio of the acceptor and donor emission signals for each individual well were calculated (ratio=665 nm/620 nm[…]).

BRD4 = biological target: T1, BRD4 (Homo sapiens, UniProt O60885); experiment: BRD4 Degradation Flow Cytometry Assay in MV4-11 cells; assay type: cell-based; conditions: for Percentage BRD4 degradation vs untreated / BRD4 degradation (in words) / BRD4 (% of control): MV4-11 cells; for Percentage BRD4 degradation vs untreated / BRD4 (% of control): 24 hr; for Percentage BRD4 degradation vs untreated: highest degradation percentage observed at concentrations between 40-1000 nM; for BRD4 degradation (in words): flow cytometry
T1 construct: endogenous in cells; host or cells: MV4-11
Description: Protein Degradation Flow Cytometry
(§1) MV4-11 cells were plated in a 24-well tissue culture plate at a density of 350,000 cells/450 μL/well and incubated in 37° C./5% CO2 for 1 hr. Cells were then treated with compounds at various concentrations and incubated in 37° C./5% CO2 for 24 hr. Cells were harvested, washed once, counted and 200 μL of 1% paraformaldehyde/PBS was added and incubated for 15 min at room temperature. 200 μL of 1×PBS/0.4% Triton X-100 was added and incubated for 15 min at 4° C. Cells were washed three times and resuspended in 50 μL of 1×PBS/0.2% Triton X-100. 2 μL/10^6 cells of anti-BRD4 antibody (ABCAM, #128874) was added and mixed by pipetting up and down. Cells were incubated for 30 min at room temperature in the dark, washed three times and resuspended in 50 μL of 1×PBS/0.2% Triton X-100. Goat anti-rabbit IgG H&L antibody (1:2000 dilution) was added and mixed by pipetting up and down and incubated for 30 min at room temperature in the dark. Finally, cells were washed three times and resuspended in 200 μL of PBS for flow cytometric analysis.

BRD2 = biological target: T2, BRD2 (Homo sapiens, UniProt P25440); experiment: BET Protein Family Degradation Flow Cytometry Assay (BRD2) in MV4-11 cells; assay type: cell-based; conditions: 24 hr
T2 construct: endogenous in cells; host or cells: MV4-11
T2 sequence (P25440 whole entry): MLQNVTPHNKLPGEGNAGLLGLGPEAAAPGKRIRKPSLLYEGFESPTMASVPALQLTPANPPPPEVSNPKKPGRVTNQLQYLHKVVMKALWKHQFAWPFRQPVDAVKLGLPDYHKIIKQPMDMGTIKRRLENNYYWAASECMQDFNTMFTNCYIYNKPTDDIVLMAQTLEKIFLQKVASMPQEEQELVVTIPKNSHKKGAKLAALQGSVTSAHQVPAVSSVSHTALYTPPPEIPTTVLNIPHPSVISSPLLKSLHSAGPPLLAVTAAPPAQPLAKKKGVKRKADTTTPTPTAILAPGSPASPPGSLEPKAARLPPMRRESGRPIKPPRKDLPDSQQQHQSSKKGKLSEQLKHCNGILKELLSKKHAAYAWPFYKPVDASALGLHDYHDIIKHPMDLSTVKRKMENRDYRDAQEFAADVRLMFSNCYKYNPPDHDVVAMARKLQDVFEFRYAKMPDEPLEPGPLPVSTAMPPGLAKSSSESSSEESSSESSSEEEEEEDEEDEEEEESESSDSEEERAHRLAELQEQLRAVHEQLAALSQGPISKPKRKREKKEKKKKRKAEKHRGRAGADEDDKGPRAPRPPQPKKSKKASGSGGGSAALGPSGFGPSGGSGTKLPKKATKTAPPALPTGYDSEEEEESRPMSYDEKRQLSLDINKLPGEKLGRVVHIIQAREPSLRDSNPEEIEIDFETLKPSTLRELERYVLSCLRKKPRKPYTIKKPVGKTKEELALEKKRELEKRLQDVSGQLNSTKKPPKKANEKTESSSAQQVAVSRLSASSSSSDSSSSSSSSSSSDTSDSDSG
Description: as §1
(§2) Similar western blotting experiments of for BRD2 and BRD3 were performed in MV4-11 cells using anti-BRD2 (Cell Signaling Technology, #139690) and anti-BRD3 (Cell Signaling Technology, #50818).

BRD3 = biological target: T3, BRD3 (Homo sapiens, UniProt Q15059); experiment: BET Protein Family Degradation Flow Cytometry Assay (BRD3) in MV4-11 cells; assay type: cell-based; conditions: 24 hr
T3 construct: endogenous in cells; host or cells: MV4-11
T3 sequence (Q15059 whole entry): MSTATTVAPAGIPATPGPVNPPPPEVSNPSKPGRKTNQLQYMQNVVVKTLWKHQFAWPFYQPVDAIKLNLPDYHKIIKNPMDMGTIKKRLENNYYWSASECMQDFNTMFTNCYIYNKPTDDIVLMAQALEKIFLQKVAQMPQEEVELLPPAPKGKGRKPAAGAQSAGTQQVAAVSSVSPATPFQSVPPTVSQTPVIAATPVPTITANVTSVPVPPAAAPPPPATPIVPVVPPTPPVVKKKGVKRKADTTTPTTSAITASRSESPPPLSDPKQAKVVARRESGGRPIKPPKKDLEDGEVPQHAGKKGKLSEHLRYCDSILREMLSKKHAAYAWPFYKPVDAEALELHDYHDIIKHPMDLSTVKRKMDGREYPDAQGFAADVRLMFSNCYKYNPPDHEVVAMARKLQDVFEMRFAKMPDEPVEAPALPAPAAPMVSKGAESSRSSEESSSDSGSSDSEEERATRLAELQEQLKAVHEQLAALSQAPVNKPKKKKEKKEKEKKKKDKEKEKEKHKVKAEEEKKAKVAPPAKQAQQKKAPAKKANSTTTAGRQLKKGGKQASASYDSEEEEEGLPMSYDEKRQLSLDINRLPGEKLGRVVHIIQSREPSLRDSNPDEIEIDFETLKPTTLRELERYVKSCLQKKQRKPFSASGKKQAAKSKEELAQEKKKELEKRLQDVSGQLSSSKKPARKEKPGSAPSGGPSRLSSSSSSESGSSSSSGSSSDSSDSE
Description: as §1, §2

BRD4 (BD1+BD2) = biological target: T4, BRD4 (BD1+BD2) (Homo sapiens, UniProt O60885); experiment: BRD4 (BD1 + BD2) Binding HTRF Assay; conditions: read-out: BRD4 Binding Potency
T4 construct: 1.8 μg/ml recombinant BRD4 (BD1+BD2 domains) protein
Description: A master mix was prepared with assay buffer, 1.8 μg/ml recombinant BRD4 (BD1+BD2 domains) protein, and 200-fold dilutions of Tb-labeled donor and dye-labeled acceptor. 40-fold dilutions of acetylated and non-acetylated ligands were prepared in 1×BRD TR-FRET assay buffer. Also, a serial 3-fold dilution of each compound was prepared ranging from 40 μM down until 2.0 nM. In a 384-well plate, 5 μl diluted ligand and 5 μl of compound dilution were added per well to duplicate wells and mixed by brief shaking. Then 10 μl of master mix was added per well, mixed by brief shaking, incubated at 25° C. for 2 hr and fluorescence was measured on an En Vision Plate Reader. The 665 nm/615 nm ratio was calculated from EnVision raw data. Data were normalized using whole-plate averages of “positive” and “negative” readings. A four-parameter “log[inhibitor] vs. response” curve was fitted using GraphPad Prism 7.0.

[1] = tested on: SU-DHL-4 diffuse large B-cell lymphoma xenograft; experiment: SU-DHL-4 DLBCL xenograft model in mice
Description: 10 μL the cell proliferation reagent CCK-8 (WST-8) was added into each well and incubated at 37° C./5% CO2 for 3-4 hr and the absorbance at 450 nm measured with an En Vision Plate Reader.
5×10^6 MV-4-11 or 1×10^7 SU-DHL-4 cells were collected and re-suspended in 0.1 mL of serum-free media with Matrigel (1:1 v/v) per mouse for subcutaneous inoculation in isoflurane anesthetized male BALB/c nude or C.B-17 scid mice, respectively (treated in accordance with AAALAC animal welfare guidelines). When the average tumor volumes reached 100-200 mm^3, tumor volume outliers were removed and the remaining animals randomly divided into groups of 6-8 with similar average tumor volumes in each group. […] Animals were intravenously dosed at 25 mg/kg, 50 mg/kg or 100 mg/kg 1×/week for 3 or 4 weeks. The appearance and behavior of each mouse was observed and recorded daily. Body weights and tumor volumes were measured and recorded every 2-4 days and the results were expressed as group means±SEM. Pairwise statistical comparisons between groups were performed by one-way ANOVA, and p<0.05 was considered statistically significant.

[2] = tested on: MV4-11 acute myeloid leukemia xenograft; experiment: MV4-11 AML xenograft model in mice; conditions: 25 mg/kg intraperitoneal 1×/day
Description: MV4-11 cells were plated in a 96-well tissue culture plate at a density of 4,500 cells/90 μL/well and incubated at 37° C./5% CO2 for 24 hr. Cells were then treated with compounds at various concentrations (a 10-point, 3-fold serial dilution series starting at 20 μM) with a final concentration of 0.5% DMSO/well and then incubated in 37° C./5% CO2 for 72 hr. 10 μL the cell proliferation reagent CCK-8 (WST-8) was added into each well and incubated at 37° C./5% CO2 for 3-4 hr and the absorbance at 450 nm measured with an En Vision Plate Reader.
MV4-11 acute myeloid leukemia and SU-DHL-4 diffuse large B-cell lymphoma (ATCC, #CRL-2957) cells were cultured in medium supplemented with 10% fetal bovine serum at 37° C./5% CO2. 5×10^6 MV-4-11 or 1×10^7 SU-DHL-4 cells were collected and re-suspended in 0.1 mL of serum-free media with Matrigel (1:1 v/v) per mouse for subcutaneous inoculation in isoflurane anesthetized male BALB/c nude or C.B-17 scid mice, respectively (treated in accordance with AAALAC animal welfare guidelines). When the average tumor volumes reached 100-200 mm^3, tumor volume outliers were removed and the remaining animals randomly divided into groups of 6-8 with similar average tumor volumes in each group. […] The appearance and behavior of each mouse was observed and recorded daily. Body weights and tumor volumes were measured and recorded every 2-4 days and the results were expressed as group means±SEM. Pairwise statistical comparisons between groups were performed by one-way ANOVA, and p<0.05 was considered statistically significant.

[3] = 100 mg/kg intravenous 1×/week, after 4 weeks of dosing

Compound `Cc1sc2c(c1C)C(c1ccc(Cl)cc1)=N[C@@H](CC(=O)NC(C)c1ccc(CN3CCC(Cc4ccc(-n5c(O)nnc5-c5cc(C(C)C)c(O)cc5O)cc4)CC3)cc1)c1nnc(C)n1-2` (stereo in doubt) [Compound 82, 2-((S)-4-(4-chlorophenyl)-2,3,9-trimethyl-6H-thieno[3,2-f][1,2,4]triazolo[4,3-a][1,4]diazepin-6-yl)-N—((R)-1-(4-((4-(4-(3-(2,4-dihydroxy-5-isopropylphenyl)-5-hydroxy-4H-1,2,4-triazol-4-yl)benzyl)piperidin-1-yl)methyl)phenyl)ethyl)acetamide hydrochloride] has a pIC50 (MV4-11 cells; MV4-11, 72 hr, CCK-8) greater than 7.00 and a pIC50 (HSP90α) of 6.00 to 7.00.

`Cc1sc2c(c1C)C(c1ccc(Cl)cc1)=N[C@H](CC(=O)N1CCC(CN3CCN(Cc4ccc(-n5c(O)nnc5-c5cc(C(C)C)c(O)cc5O)cc4)CC3)CC1)c1nnc(C)n1-2` [Compound 5, 2-((6R)-4-(4-chlorophenyl)-2,3,9-trimethyl-6H-thieno[3,2-f][1,2,4]triazolo[4,3-a][1,4]diazepin-6-yl)-1-(4-((4-(4-(3-(2,4-dihydroxy-5-isopropylphenyl)-5-hydroxy-4H-1,2,4-triazol-4-yl)benzyl)piperazin-1-yl)methyl)piperidin-1-yl)ethanone, trifluoroacetic acid] was tested, and the pIC50 (MYC protein) was greater than 7.00, the “Percentage BRD4 degradation vs untreated” value (BRD4) was “C (Degradation < 10%)” and the “BRD4 degradation (in words)” value (BRD4) was “does not degrade BRD4”. The pIC50 (MV4-11 cells; MV4-11, 72 h) was greater than 7.00.

With `Cc1sc2c(c1C)C(c1ccc(Cl)cc1)=N[C@@H](CC(=O)N1CCC(CN3CCN(Cc4ccc(-n5c(O)nnc5-c5cc(C(C)C)c(O)cc5O)cc4)CC3)CC1)c1nnc(C)n1-2` [Compound 40, 2-((6S)-4-(4-chlorophenyl)-2,3,9-trimethyl-6H-thieno[3,2-f][1,2,4]triazolo[4,3-a][1,4]diazepin-6-yl)-1-(4-((4-(4-(3-(2,4-dihydroxy-5-isopropylphenyl)-5-hydroxy-4H-1,2,4-triazol-4-yl)benzyl)piperazin-1-yl)methyl)piperidin-1-yl)ethanone, trifluoroacetic acid] the pIC50 (MYC protein) was greater than 7.00, the “Percentage BRD4 degradation vs untreated” value (BRD4) was “A (Degradation > 50%)” and the “ability to degrade BRD4 after pretreatment” value (BRD4; cells pretreated with a combination of a HSP90 binder and (+)-JQ1) was “significantly reduced”.

`Cc1sc2c(c1C)C(c1ccc(Cl)cc1)=N[C@@H](CC(=O)NCC(=O)NCC1CCN(C(=O)C3CCN(Cc4ccc(-n5c(O)nnc5-c5cc(C(C)C)c(O)cc5O)cc4)CC3)C1)c1nnc(C)n1-2` (stereo partly drawn) [Compound 47, 2-((S)-4-(4-chlorophenyl)-2,3,9-trimethyl-6H-thieno[3,2-f][1,2,4]triazolo[4,3-a][1,4]diazepin-6-yl)-N-(2-(((1-(1-(4-(3-(2,4-dihydroxy-5-isopropylphenyl)-5-hydroxy-4H-1,2,4-triazol-4-yl)benzyl)piperidine-4-carbonyl)pyrrolidin-3-yl)methyl)amino)-2-oxoethyl)acetamide, trifluoroacetic acid] was tested, and the “BRD2 (% of control)” value (BRD2; 100 nM) was 81.2 % of control, the “BRD2 (% of control)” value (BRD2; 300 nM) was 102.2 % of control and the “BRD3 (% of control)” value (BRD3; 100 nM) was 95.0 % of control. The “BRD3 (% of control)” value (BRD3; 300 nM) was 91.4 % of control, the “BRD4 (% of control)” value (BRD4; 100 nM) was 17.3 % of control and the “BRD4 (% of control)” value (BRD4; 300 nM) was 9.6 % of control. For the same compound, the pIC50 (MV4-11 cells; MV4-11, 72 hr, CCK-8) was greater than 7.00.

`Cc1sc2c(c1C)C(c1ccc(Cl)cc1)=N[C@@H](CCN1CCC(CN3CCN(Cc4ccc(-n5c(O)nnc5-c5cc(C(C)C)c(O)cc5O)cc4)CC3)CC1)c1nnc(C)n1-2` [Compound 76, trifluoroacetic acid] was tested, and the pIC50 (MV4-11 cells; MV4-11, 72 h) was greater than 7.00, the pIC50 (HSP90α) was 6.00 to 7.00 and the pIC50 (BRD4 (BD1+BD2)) was less than 6.00.

`CCc1cc(-c2nnc(C(=O)NCC(F)(F)F)n2-c2ccc(CN3CCN(CC4CCN(C(=O)C[C@@H]5N=C(c6ccc(Cl)cc6)c6c(sc(C)c6C)-n6c(C)nnc65)CC4)CC3)cc2)c(O)cc1O.Cl` [Compound 78, 4-(4-((4-((1-(2-((6S)-4-(4-chlorophenyl)-2,3,9-trimethyl-6H-thieno[3,2-f][1,2,4]triazolo[4,3-a][1,4]diazepin-6-yl)acetyl)piperidin-4-yl)methyl)piperazin-1-yl)methyl)phenyl)-5-(5-ethyl-2,4-dihydroxyphenyl)-N-(2,2,2-trifluoroethyl)-4H-1,2,4-triazole-3-carboxamide hydrochloride] was tested, and the “tumor growth inhibition (FIG. 4a)” value [1, 3] was “significant tumor growth inhibition”, the “tumor vs control (T/C) value” [1, 3] was 28% and the “animal deaths and body weights (FIG. 4b)” value ([1]; any dose level, SU-DHL-4 xenograft) was “No animal deaths or significant effects on body weights were observed”.

For (+)-JQ1 [reference compound], the tumor growth inhibition [2] was “moderate tumor growth inhibition” and the “BRD4 degradation (in words)” value (BRD4) was “no substantial BRD4 degradation was observed”.
